Key:
[1] = target: T1, kappa opioid receptors (Cavia porcellus, UniProt P41144); test: Guinea pig ileal longitudinal muscle (GPI), antagonism of ethylketazocine (EK); format: cell-based; conditions: for Selectivity κ/μ: GPI EK versus GPI morphine; for Selectivity κ/δ: GPI EK versus MVD DADLE; for kappa antagonist potency compared with norBNI: GPI, EK; for Kb / IC50 ratio, EK (GPI): antagonist 100 nM, agonist ethylketazocine; for Kb: 15 min incubation, Ke=[antagonist]/(IC50 ratio-1); for IC50 ratio, EK (GPI): IC50 agonist + antagonist/IC50 agonist
T1 construct: a strip of longitudinal muscle with the myenteric plexus attached was prepared; from tissue; host or cells: guinea pig ileal longitudinal muscle with myenteric plexus (Dunkin-Hartley males)
T1 sequence (P41144 whole entry): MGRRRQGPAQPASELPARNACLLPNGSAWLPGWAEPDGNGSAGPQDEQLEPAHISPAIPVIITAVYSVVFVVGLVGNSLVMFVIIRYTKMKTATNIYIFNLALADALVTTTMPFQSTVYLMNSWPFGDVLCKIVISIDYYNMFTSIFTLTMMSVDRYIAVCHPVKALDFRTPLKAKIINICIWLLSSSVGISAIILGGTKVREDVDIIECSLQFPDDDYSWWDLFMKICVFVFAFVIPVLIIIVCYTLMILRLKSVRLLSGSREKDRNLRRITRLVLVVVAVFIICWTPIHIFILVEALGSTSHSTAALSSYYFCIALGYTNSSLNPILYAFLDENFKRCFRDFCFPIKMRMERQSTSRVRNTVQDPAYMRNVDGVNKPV
Protocol: (§1) Physiological data for guinea pig ileal longitudinal muscle (GPI) was obtained by the methodology of H. P. Rang, “Stimulant Actions of Volatile Anaesthetics on Smooth Muscle,” Brit. […] In vivo assays were done s.c. on mice.
(§2) 1. Guinea Pig Ileal Longitudinal Muscle (GPI). Ilea from guinea pigs were taken approximately 10 cm from the ileocecal junction, and a strip of longitudinal muscle with the myenteric plexus attached was prepared by the method of […] et al., Brit. […] A 1 cm portion of this strip was then mounted between two platinum electrodes placed in a 10 ml organ bath and connected to an isometric transducer; contractions were recorded on a polygraph. Contractions of the ileal strip were initiated by supramaximal rectangular pulses in all preparations (80 V of 0.5 ms duration at a frequency of 0.1 Hz). […] The organ bath was maintained at 36°-37° C. The longitudinal muscle strip was allowed to equilibrate with continuous stimulation for a minimum of 90 min. Cumulative concentration-response curves were determined after drugs were added to the bath in preselected amounts and washed out with buffer after noting their maximum effects.
(§3) Concentration-response curves were obtained in the absence (control) and the presence of the antagonist are expressed as IC50 values. The IC50 ratio represents the IC50 in the presence of the antagonist divided by the control IC50 value in the same tissue. Therefore, a high IC50 ratio represents a correspondingly high degree of antagonism at a particular receptor. This IC50 ratio was employed to calculate the Ke value using the equation Ke=[antagonist]/(IC50 ratio-1). Therefore, a low Ke represents a correspondingly high degree of binding at a particular receptor.

[2] = target: mu opioid receptors; conditions: antagonist 100 nM; agonist morphine
Protocol: as §1, §2, §3

[3] = target: delta opioid receptors (Mus musculus, UniProt P32300); test: Mouse vas deferens (MVD), antagonism of DADLE (D); format: cell-based; set-up: Both vasa deferentia were dissected out of mice and mounted singly; from tissue; host or cells: mouse vas deferens (Swiss-Webster males) for A3; whole mouse in vivo for A7; conditions: antagonist 100 nM; agonist DADLE
delta opioid receptors, sequence (P32300 whole entry): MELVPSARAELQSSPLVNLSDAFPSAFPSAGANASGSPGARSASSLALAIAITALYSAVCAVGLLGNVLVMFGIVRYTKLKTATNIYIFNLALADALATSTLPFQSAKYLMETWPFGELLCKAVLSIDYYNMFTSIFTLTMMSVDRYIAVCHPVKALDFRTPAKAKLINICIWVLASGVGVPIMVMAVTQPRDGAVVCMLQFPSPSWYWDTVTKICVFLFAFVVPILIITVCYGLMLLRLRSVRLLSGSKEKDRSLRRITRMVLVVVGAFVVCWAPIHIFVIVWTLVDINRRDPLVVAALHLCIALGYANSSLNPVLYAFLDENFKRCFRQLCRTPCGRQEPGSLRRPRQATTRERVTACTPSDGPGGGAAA
Protocol: 2. Mouse Vas Deferens (MVD). This assay was performed according to the description by G. Henderson et al., Brit. […] Both vasa deferentia were dissected out of mice and mounted singly through two platinum ring electrodes in a 10 ml organ bath. The bath contained Krebs bicarbonate solution that was continuously bubbled with 95% O2 and 5% CO2. The organ bath was maintained at 37° C. The tissue was attached to an isometric transducer and stimulated transmurally with rectangular pulses ([…], 1 ms duration, supramaximal voltage). Drugs were added cumulatively to the bath in preselected amounts and washed out after noting their maximum effects.
as §3

| Compound | Selectivity κ/μ [1] | Selectivity κ/δ [1] | kappa antagonist potency compared with norBNI [1] | Kb [1] [nM] | IC50 ratio, EK (GPI) [1] | IC50 ratio, M (GPI) [2] | Ke, M (GPI) [2] [nM] | IC50 ratio, D (MVD) [3] | kappa selectivity compared with norBNI ([1]; GPI/MVD) | potency and selectivity among the compounds ([1]; GPI/MVD) | potency and selectivity compared with norBNI ([1]; GPI/MVD) | Ke, D (MVD) [3] [nM] |
| --- | --- | --- | --- | --- | --- | --- | --- | --- | --- | --- | --- | --- |
| 17-(Cyclopropylmethyl)-6,7-dehydro-4,5α-epoxy-3,14-dihydroxy-5′-[(N^2-butyramidino)methy]-6,7-2′,3′-indolomorphinan Dihydrochloride [Compound 5] | 10 | 62 | more potent | 0.54 | 185 ± 49 | 18.2 ± 3.9 | 5.84 | 3.00 ± 0.51 |  |  |  |  |
| 17-(Cyclopropylmethyl)-6,7-dehydro-4,5α-epoxy-3,14-dihydroxy-5 ′-[N^2-(4-dimethylaminobutyrylamidino)methyl]-6,7-2′,3′-indolomorphinan Trihydrochloride [Compound 44] | 61 | 250 | more potent | 0.147 | 679 ± 273 | 12.1 ± 3.4 | 9.01 | 2.71 ± 0.44 | more selective | greatest poteny and selectivity | more potent and selective |  |
| 17-(Cyclopropylmethyl)-6,7-dehydro-4,5α-epoxy-3,14-dihydroxy-5′-[(N^2-3-methylpentanamidino)methyl]-6,7-2′,3′-indolomorphinan Dihydrochloride [Compound 2] | 12 | 310 | more potent | 0.25 | 394 ± 97 | 31.6 ± 10.7 | 3.27 | 1.19 ± 0.51 |  |  |  |  |
| 17-(Cyclopropylmethyl)-6,7-dehydro-4,5α-epoxy-3,14-dihydroxy-5′-[N^2-(N,N-dimethylglycinamidino)methyl]-6,7-2′,3′-indolomorphinan Trihydrochloride [Compound 42] | 55 | 111 | more potent | 0.183 | 547 ± 125 | 10.0 ± 0.4 | 11.1 | 4.91 ± 1.38 | more selective |  | more potent and selective | 25.6 |
| 17-(Cyclopropylmethyl)-6,7-dehydro-4,5α-epoxy-3,14-dihydroxy-5′-[N-(β-dimethylamino)ethylcarboxamido]-6,7-2′,3′-indolomorphinan Dihydrochloride [Compound 45] | 6 | 117 |  | 0.568 | 177 ± 54 | 30.3 ± 3.6 | 3.41 | 1.51 ± 0.42 |  |  |  |  |
| 17-(Cyclopropylmethyl)-6,7-dehydro-4,5α-epoxy-3,14-dihydroxy-5′-[(N^2-acetamidino)methyl]-6,7-2′,3′-indolomorphinan Dihydrochloride [Compound 3] | 9 | 44 |  | 0.81 | 124 ± 33 | 13.4 ± 2.2 | 8.04 | 2.81 ± 0.62 |  |  |  |  |
| Oc1ccc2c3c1OC1c4[nH]c5c(c4CC4(O)C(C2)N(CC2CC2)CC[C@]314)C[C@@]1(O)C2Cc3ccc(O)c4c3[C@@]1(CCN2CC1CC1)[C@H]5O4 (stereo partly drawn) [norBinaltorphimine, reference compound] |  |  |  | 0.56 |  |  | 14 |  |  |  |  |  |

Reference: patent US6534514B1, “Kappa opioid receptor antagonists” (Regents of the University of Minnesota, priority 1993, dated 2003)
